Patent US8039648B2, “Compounds used as dyes comperable to Alexa Fluor 350 dyes” (Pierce Biotechnology, Inc., priority 2009, dated 2011)
Counter-ions that a name gives are not always drawn.

Experiments:
[1] = Absorption and emission spectra in water and ethanol (Example 9); format: physicochemical; settings: for emission spectrum maximum: excitation 345 nm
Procedure: Absorption spectra of compounds V07-09111 and V07-09144 (concentrations between 10 μM and 50 μM) in water and ethanol (spectral grade) were recorded (Analytik Jena Specord 205 absorption spectrometer, quartz cuvettes with a pathlength of 1 cm). For emission spectra determination, the solutions were diluted in PBS (100 mM, pH 7.4, 100 mM sodium chloride, 5 mM sodium azide) to an absorbance of around 0.1 at a 1 cm pathlength; emission spectra were recorded on a JASCO FP-6600 fluorescence spectrometer; excitation wavelength 345 nm, excitation and emission slits were 3 nm and 6 nm, respectively. Both absorption and emission spectra were normalized to the maxima for presentation in FIGS. 2, 3, 4, and 5.
FIGS. 2 and 3 show the absorbance and emission spectra of V07-09144 in water and ethanol, respectively. FIGS. 4 and 5 show the absorbance and emission spectra of V07-09111 in water and ethanol, respectively. The absorbance and emission spectra of V07-09111 are 350 nm and 430 nm in water, and 351 nm and 443 nm in ethanol, respectively. The absorbance and emission spectra of V07-09144 are 350 nm and 440 nm in water, and 351 nm and 443 nm in ethanol, respectively.

[2] = UV-Vis absorption and emission maxima given with the synthesis examples; format: physicochemical
[3] = Absorbance spectra of the NHS dyes in PBS buffer (Example 8); format: physicochemical; settings: PBS buffer pH 7.2, 10 mg/ml in DMF diluted 1:1000
Procedure: Each of NHS-AMCA (MW=330 g/mole), V07-09111-NHS “8-isomer” (MW=874.1 g/mole), V07-0144-NHS “6-isomer” (MW=874.1 g/mole) and Alexa Fluor 350-NHS, Molecular Probes (Product #A10168) were reconstituted in DMF at 10 mg/ml and then diluted 1:1000 in PBS buffer (100 mM sodium phosphate, 150 mM NaCl; pH 7.2). Absorbance of the sample was evaluated from 440 nm to 240 nm on a UV Cary Spectrophotometer (Varian).

[4] = tested on: biotin and mouse IgG coated white 96-well plates; assay: Plate-based functional testing of streptavidin and GAM conjugates (Example 12); format: binding; settings: for signal sensitivities and intensities of bound conjugates compared to conjugates made with AMCA-NHS: GAM and SA conjugates made with the dye, 4 μg/ml, ex 346/em 442
Procedure: Streptavidin and GAM conjugates made in Example 11 were analyzed on biotin and mouse IgG coated white 96-well plates. The plates were coated by making a 1:1 serial dilution of biotinylated bovine serum albumin (BSA, Thermo Scientific) and mouse IgG with starting concentrations of 2 μg/ml and 10 μg/ml, respectively. One hundred μl of each dilution was added per well. The last column on each plate was considered blank (PBS buffer only). The plates were incubated overnight at 4° C. and then blocked by washing 3×200 μl with SuperBlock Blocking Buffer in PBS (Thermo Scientific). Plates were washed 2×200 μl PBS-Surfact-Amp 20 and 1×100 μl PBS. All of the conjugates were diluted to 4 μg/ml in PBS buffer, added to the plates (100 μl/well) and incubated for one hour at room temperature (RT) (about 20° C. to about 22° C.). The plates were then washed 2×200 μl with PBS containing 0.05% Surfact-Amp 20 and 1×200 μl PBS. Finally 100 μl PBS buffer was added to the wells. The fluorescence intensity of the bound conjugate was measured on Tecan Safire using optimal Alexa Fluor 350 setting (ex 346/em 442) and optimal gain. FIGS. 7A and 7B show relative fluorescent units (RFU) and signal to background ratios (S/B), respectively, of goat anti-mouse antibodies (GAM) conjugated to amino-methyl-coumarin-acetate (AMCA), V07-09111-NHS, V07-09144-NHS, and Alexa Fluor 350-NHS. FIGS. 7C and 7D show RFU and S/B, respectively, of streptavidin (SA) conjugated to AMCA, V07-09111, V07-09144, and Alexa Fluor 350.

[5] = tested on: Lamin A; assay: Immunofluorescence detection of Lamin A in HeLa cells with dye-GAM conjugates (Example 13); format: cell-based, human; settings: GAM conjugates made with the dye, 4 μg/ml, similar molar excesses
Procedure: Lamin A was stained in HeLa cells to compare […]-09111-GAM and […]-09144GAM to AMCA-GAM and Alexa Fluor 350-GAM. HeLa cells were seeded at about 10,000 cells/well in a 96-well clear bottom collagen coated tissue culture plate (BD Falcon BioCoat collagen) and cultured overnight. To fix the cells, the medium was removed and replaced at 100 μl/well with freshly prepared 4% paraformaldehyde (EMS Product #15710-S) diluted in 8 mM sodium phosphate, 2 mM potassium phosphate, 140 mM sodium chloride and 10 mM potassium chloride (PBS pH 7.4) and the cells were incubated at room temperature for 15 minutes. After 15 minutes, the cells were washed 3 times with PBS. After removal of PBS the cells were permeabilized with 100 μl/well of PBS containing 0.1% Surfact-Amps X-100. The permeabilization was carried out at room temperature (RT) for 15 minutes and then the cells were washed two times with PBS. The cells were blocked at RT for 30 minutes with (100 μl/well) PBS containing 0.1% Triton X-100 and supplemented with 2% of BlockerTM BSA (Thermo Scientific). […] The images shown in FIGS. 8A-H were acquired using the appropriate shift free optical filter set with a […] on Zeiss Axio Observer Z1 fluorescence microscope using an ORCA-ER-1394 Hamamatsu, CCD Digital Camera and the AxioVison Release 4.7 Software. […]

λem ([2]; UV-Vis (PBS)) [nm] | λmax ([2]; UV-Vis (PBS)) [nm] | absorbance maxima (AbsMax) [3] [nm] | Compound | signal sensitivities and intensities of bound conjugates compared to conjugates made with AMCA-NHS [4] | further results
430 | 352 |  | Nc1ccc2c3c(c(=O)oc2c1S(=O)(=O)O)CCC3C(CC(=O)NCCCC(=O)O)S(=O)(=O)O (stereo not drawn) [V07-09111, 4-[3-(7-amino-4-oxo-6-sulfo-1,2,3,4-tetrahydro-cyclopenta[c]chromen-1-yl)-3-sulfo-propionylamino]-butyric acid] |  | absorbance spectrum maximum ([1]; in ethanol): 351 nm; emission spectrum maximum ([1]; in ethanol): 443 nm; absorbance spectrum maximum ([1]; in water): 350 nm; emission spectrum maximum ([1]; in water): 430 nm
430 | 352 | 352 | Nc1ccc2c3c(c(=O)oc2c1S(=O)(=O)O)CCC3C(CC(=O)NCCCC(=O)ON1C(=O)CCC1=O)S(=O)(=O)O (stereo not drawn) [V07-09111-NHS, 4-[3-(7-amino-4-oxo-6-sulfo-1,2,3,4-tetrahydro-cyclopenta[c]chromen-1-yl)-3-sulfo-propionylamino]-butyric acid NHS ester bis diisopropyethylammonium salt] | higher signal sensitivities and intensities | specificity of staining and background compared to NHS-AMCA or NHS-Alexa Fluor 350 conjugates [5]: higher specificity of staining for the target with lower background
 |  | 345 | Cc1c(CC(=O)ON2C(=O)CCC2=O)c(=O)oc2cc(N)c(S(=O)(=O)O)cc12 [Alexa Fluor 350-NHS, reference compound] | higher signal sensitivities and intensities | 
 |  |  | CCOC(=O)CCC1CCc2c1c1ccc(NC(=O)OCC)cc1oc2=O (stereo not drawn) [V07-09096, 3-(7-ethoxycarbonylamino-4-oxo-1,2,3,4-tetrahydro-cyclopenta[c]chromen-1-yl)propionic acid ethylester] |  | ε ([2]; in methanol): 23000 L/mol/cm; λem ([2]; in methanol): 393 nm; λmax ([2]; in methanol): 328 nm
440 | 349 |  | Nc1cc2oc(=O)c3c(c2cc1S(=O)(=O)O)C(C(CC(=O)O)S(=O)(=O)O)CC3 (stereo not drawn) [V07-09142, 3-(7-amino-4-oxo-8-sulfo-1,2,3,4-tetrahydro-cyclopenta[c]chromen-1-yl)-3-sulfo propionic acid bis sodium salt] |  | 
 |  | 349 | Cc1c(CC(=O)ON2C(=O)CCC2=O)c(=O)oc2cc(N)ccc12 [NHS-AMCA, succinimidyl-7-amino-4-methylcoumarin-3-acetate, reference compound] |  | 
 |  | 347 | Nc1cc2oc(=O)c3c(c2cc1S(=O)(=O)O)C(C(CC(=O)NCCCC(=O)ON1C(=O)CCC1=O)S(=O)(=O)O)CC3 (stereo not drawn) [V07-09144-NHS] | higher signal sensitivities and intensities | specificity of staining and background compared to NHS-AMCA or NHS-Alexa Fluor 350 conjugates [5]: higher specificity of staining for the target with lower background
429 | 352 |  | Nc1ccc2c3c(c(=O)oc2c1S(=O)(=O)O)CCC3C(CC(=O)O)S(=O)(=O)[O-].[Na+] (stereo not drawn) [V07-09089, 3-(7-amino-4-oxo-6-sulfo-1,2,3,4-tetrahydro-cyclopenta[c]chromen-1-yl)-3-sulfopropionic acid bis sodium salt] |  | binding in a functional plate assay among the DY-350 dyes ([4]; comparison among the DY-350 dyes): lower binding in a functional plate assay
435 | 350 |  | Nc1c(S(=O)(=O)O)cc2c3c(c(=O)oc2c1S(=O)(=O)O)CCC3C(CC(=O)O)S(=O)(=O)[O-].[Na+] (stereo not drawn) [V07-09140, 3-(7-amino-4-oxo-6,8-disulfo-1,2,3,4-tetrahydro-cyclopenta[c]chromen-1-yl)-3-sulfo-propionic acid tris sodium salt] |  | 
